Source: ChEMBL document CHEMBL5579820, “New insights into butyrylcholinesterase: Pharmaceutical applications, selective inhibitors and multitarget-directed ligands” (Eur J Med Chem, 2024)
Several values for one entry are separate records, joined by “and”; a condition that tells them apart may be missing. Equal values may be shown once.

What was measured:
Acetylcholinesterase [1] = molecular target: T1, Acetylcholinesterase (Homo sapiens, UniProt P22303); test: Inhibition of human AChE at 15 uM relative to control
[2] = Selectivity index, ratio of IC50 for human AChE using acetylthiocholine iodide as substrate to IC50 for equine serum BuChE using butyrylthiocholine iodide as substrate
Cholinesterase [3] = molecular target: T2, Cholinesterase (Equus caballus, UniProt P81908); test: Inhibition of equine BuChE
[4] = molecular target: Acetylcholinesterase (Electrophorus electricus) (UniProt O42275); test: Inhibition of electric eel AChE using acetylthiocholine iodide as substrate at 50 uM by Ellman's method relative to control
Acetylcholinesterase [5] = molecular target: T1, Acetylcholinesterase
Acetylcholinesterase [6] = molecular target: T1, Acetylcholinesterase; test: Inhibition of AChE (unknown origin) using acetylthiocholine iodide as substrate preincubated for 15 min followed by substrate addition and measured after 60 min by Ellman's method
Cholinesterase [7] = molecular target: T3, Cholinesterase (Homo sapiens, UniProt P06276); test: Inhibition of human BChE using butyrylthiocholineiodide as substrate measured for 30 mins by Ellman's method
Acetylcholinesterase [8] = molecular target: T4, Acetylcholinesterase (Electrophorus electricus, UniProt O42275); test: Inhibition of Electric eel AChE using […] as substrate by spectrophotometry based Ellman's method
[9] = Inhibition of equine serum BChE using butyrylthiocholine iodide as substrate by Ellman's method; set-up: species or system Equus caballus
Acetylcholinesterase [10] = molecular target: T1, Acetylcholinesterase; test: Inhibition of human AChE by Ellman's method
[11] = molecular target: Cholinesterase (Equus caballus) (UniProt P81908); test: Inhibition of equine BChE at 100 uM by Ellman's method relative to control
Acetylcholinesterase [12] = molecular target: T4, Acetylcholinesterase; test: Inhibition of electric eel AChE
Cholinesterase [13] = molecular target: T3, Cholinesterase
Acetylcholinesterase [14] = molecular target: T4, Acetylcholinesterase; test: Inhibition of electric eel AChE using acetylthiocholine iodide as substrate after 60 mins by Ellman's method
Cholinesterase [15] = molecular target: T2, Cholinesterase; test: Inhibition of equine serum BuChE by Ellman's method
[16] = Selectivity index, ratio of IC50 for electric eel AChE to IC50 for equine serum BuChE
[17] = molecular target: Cholinesterases; ACHE & BCHE (Homo sapiens) (UniProt P06276+P22303); test: Selectivity index, ratio of IC50 for inhibition of human AChE to IC50 for inhibition of human BChE; format: protein assay
Cholinesterase [18] = molecular target: T3, Cholinesterase; test: Inhibition of human BChE using butyrylthiocholineiodide as substrate at 10 uM by Ellman's method relative to control
[19] = molecular target: T5, Protein deacetylase HDAC6 (Homo sapiens, UniProt Q9UBN7); test: Inhibition of HDAC6 (unknown origin)
T5 sequence (Q9UBN7 whole entry): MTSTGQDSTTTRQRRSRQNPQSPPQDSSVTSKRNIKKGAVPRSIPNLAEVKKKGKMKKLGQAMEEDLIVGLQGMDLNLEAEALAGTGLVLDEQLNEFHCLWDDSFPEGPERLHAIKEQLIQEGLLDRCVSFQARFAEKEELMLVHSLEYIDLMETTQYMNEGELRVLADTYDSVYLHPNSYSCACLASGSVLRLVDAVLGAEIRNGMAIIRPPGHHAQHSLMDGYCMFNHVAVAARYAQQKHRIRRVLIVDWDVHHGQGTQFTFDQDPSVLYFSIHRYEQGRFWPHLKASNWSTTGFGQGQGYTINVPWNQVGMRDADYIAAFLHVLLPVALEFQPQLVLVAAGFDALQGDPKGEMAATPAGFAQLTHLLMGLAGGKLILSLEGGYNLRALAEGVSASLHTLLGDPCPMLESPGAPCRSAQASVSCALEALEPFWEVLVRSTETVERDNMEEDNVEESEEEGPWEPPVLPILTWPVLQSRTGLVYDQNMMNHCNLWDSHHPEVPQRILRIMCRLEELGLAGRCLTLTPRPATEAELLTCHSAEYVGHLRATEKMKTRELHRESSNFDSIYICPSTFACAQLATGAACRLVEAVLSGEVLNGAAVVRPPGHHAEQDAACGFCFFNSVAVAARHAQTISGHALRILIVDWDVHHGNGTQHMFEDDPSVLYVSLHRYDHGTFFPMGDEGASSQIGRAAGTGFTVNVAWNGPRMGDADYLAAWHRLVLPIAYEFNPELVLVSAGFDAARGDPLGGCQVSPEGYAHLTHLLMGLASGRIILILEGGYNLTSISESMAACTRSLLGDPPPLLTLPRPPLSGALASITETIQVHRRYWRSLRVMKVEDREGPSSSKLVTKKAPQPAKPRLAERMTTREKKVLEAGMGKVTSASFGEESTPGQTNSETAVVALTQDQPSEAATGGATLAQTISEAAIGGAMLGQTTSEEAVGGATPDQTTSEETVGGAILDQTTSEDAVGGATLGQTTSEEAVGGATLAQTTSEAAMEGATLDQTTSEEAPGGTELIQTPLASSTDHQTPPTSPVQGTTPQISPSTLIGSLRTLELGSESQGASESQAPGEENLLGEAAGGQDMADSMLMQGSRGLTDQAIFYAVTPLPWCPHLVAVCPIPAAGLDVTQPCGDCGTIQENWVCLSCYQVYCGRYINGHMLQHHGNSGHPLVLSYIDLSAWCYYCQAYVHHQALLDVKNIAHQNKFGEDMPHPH

Cholinesterase [20] = molecular target: T3, Cholinesterase; test: Inhibition of human BChE using butyrylthiocholine iodide as substrate preincubated for 15 min followed by substrate addition measured after 40 min by Ellman's method
Acetylcholinesterase [21] = molecular target: T1, Acetylcholinesterase; test: Inhibition of human AChE using acetylthiocholine iodide as substrate after 15 mins by Ellman's method
Cholinesterase [22] = molecular target: T3, Cholinesterase; test: Inhibition of BChE (unknown origin)
Acetylcholinesterase [23] = molecular target: T1, Acetylcholinesterase; test: Inhibition of AChE (unknown origin)

T2 sequence (P81908 whole entry): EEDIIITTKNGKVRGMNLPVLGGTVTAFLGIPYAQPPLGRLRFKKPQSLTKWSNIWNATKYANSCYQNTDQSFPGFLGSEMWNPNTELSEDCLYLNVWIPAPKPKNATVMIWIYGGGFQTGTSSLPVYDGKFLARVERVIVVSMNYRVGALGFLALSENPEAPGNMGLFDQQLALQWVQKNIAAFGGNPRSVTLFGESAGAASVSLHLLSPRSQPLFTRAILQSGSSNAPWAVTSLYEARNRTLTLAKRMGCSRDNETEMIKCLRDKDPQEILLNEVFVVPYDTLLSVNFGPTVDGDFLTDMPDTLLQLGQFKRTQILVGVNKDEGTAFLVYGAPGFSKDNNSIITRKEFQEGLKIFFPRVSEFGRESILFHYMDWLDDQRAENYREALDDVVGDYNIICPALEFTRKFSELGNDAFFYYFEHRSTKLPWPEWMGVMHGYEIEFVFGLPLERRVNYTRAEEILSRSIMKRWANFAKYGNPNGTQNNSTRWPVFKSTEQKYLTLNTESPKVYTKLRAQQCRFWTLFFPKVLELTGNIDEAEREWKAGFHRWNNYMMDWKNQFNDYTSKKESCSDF
T4 sequence (O42275 whole entry): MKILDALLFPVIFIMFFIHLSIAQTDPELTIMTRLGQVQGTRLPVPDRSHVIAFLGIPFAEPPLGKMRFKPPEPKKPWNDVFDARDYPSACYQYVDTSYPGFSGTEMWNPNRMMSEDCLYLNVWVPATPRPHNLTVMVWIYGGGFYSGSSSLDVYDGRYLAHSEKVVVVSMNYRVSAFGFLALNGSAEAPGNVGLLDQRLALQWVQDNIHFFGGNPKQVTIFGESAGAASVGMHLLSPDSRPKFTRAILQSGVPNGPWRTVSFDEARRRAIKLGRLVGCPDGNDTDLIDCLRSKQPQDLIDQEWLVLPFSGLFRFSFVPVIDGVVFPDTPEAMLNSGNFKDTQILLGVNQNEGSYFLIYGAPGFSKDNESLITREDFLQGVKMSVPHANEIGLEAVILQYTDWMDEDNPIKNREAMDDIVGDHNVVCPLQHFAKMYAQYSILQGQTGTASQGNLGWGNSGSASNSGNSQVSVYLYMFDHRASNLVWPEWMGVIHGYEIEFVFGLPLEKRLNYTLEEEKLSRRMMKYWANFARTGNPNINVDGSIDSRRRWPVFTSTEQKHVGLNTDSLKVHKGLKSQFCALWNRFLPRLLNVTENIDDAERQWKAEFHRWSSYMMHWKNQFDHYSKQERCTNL
T1 sequence (P22303 whole entry): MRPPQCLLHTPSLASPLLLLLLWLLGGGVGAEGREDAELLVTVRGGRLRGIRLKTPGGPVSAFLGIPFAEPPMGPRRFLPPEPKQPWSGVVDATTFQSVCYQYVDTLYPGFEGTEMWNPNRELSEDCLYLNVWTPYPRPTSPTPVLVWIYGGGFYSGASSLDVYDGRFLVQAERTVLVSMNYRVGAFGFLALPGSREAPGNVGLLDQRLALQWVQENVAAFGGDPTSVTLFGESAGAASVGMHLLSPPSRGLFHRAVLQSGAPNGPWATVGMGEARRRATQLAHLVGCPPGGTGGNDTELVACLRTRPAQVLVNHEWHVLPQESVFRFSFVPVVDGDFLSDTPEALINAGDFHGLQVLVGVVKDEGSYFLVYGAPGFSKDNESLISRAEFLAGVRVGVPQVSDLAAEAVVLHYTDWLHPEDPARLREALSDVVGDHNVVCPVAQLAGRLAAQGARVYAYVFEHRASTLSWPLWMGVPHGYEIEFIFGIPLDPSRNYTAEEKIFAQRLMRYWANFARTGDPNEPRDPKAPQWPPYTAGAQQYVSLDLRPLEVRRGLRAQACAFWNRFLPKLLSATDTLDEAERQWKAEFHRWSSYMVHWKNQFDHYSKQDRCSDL
T3 sequence (P06276 whole entry): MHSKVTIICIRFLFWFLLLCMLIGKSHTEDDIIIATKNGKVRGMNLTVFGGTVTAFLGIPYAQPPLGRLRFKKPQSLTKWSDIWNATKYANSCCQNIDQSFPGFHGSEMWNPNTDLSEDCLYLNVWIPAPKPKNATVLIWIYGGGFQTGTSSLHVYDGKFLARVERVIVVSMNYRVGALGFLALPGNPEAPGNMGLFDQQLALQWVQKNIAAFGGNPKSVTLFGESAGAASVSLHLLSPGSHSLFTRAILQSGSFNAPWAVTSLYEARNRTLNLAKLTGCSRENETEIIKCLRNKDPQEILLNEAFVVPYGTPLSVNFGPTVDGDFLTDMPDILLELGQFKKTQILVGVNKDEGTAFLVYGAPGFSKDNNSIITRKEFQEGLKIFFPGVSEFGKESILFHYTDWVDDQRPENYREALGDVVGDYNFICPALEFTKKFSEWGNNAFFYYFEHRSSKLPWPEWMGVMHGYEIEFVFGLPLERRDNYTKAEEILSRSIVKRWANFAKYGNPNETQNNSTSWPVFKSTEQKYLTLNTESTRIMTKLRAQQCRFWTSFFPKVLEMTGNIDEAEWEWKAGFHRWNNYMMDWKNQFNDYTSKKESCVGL
Acetylcholinesterase (Electrophorus electricus), sequence (O42275 24-633 limits assumed): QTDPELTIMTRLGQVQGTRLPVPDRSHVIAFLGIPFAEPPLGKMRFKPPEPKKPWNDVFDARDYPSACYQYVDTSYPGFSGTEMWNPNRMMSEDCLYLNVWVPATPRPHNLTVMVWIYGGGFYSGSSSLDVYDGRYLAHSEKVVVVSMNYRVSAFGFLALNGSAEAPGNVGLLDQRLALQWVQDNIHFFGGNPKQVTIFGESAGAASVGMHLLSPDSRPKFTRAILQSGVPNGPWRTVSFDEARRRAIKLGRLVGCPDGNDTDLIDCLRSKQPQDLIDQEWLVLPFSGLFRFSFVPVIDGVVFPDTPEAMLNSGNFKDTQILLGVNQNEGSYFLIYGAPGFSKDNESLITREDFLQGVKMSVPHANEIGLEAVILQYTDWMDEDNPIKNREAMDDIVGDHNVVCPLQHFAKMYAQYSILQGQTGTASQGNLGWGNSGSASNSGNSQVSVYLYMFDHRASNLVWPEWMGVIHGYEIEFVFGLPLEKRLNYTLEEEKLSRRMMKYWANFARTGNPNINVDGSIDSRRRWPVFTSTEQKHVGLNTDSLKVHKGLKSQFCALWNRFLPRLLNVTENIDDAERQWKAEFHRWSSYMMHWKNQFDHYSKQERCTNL
Cholinesterase (Equus caballus), sequence (P81908 whole entry): as the sequence (P81908 whole entry) above
Cholinesterases; ACHE & BCHE (Homo sapiens), sequence (P06276 whole entry, looked up): as the sequence (P06276 whole entry) above
Cholinesterases; ACHE & BCHE (Homo sapiens), sequence (P22303 whole entry, looked up): as the sequence (P22303 whole entry) above

## CCCCCCNC(=O)Oc1ccc2c(c1)CN1CCc3ccc(/N=N/c4ccccc4)cc3C1N2C (centres undefined)
Acetylcholinesterase [1]
  inhibition: 28.5%

## CCc1ccccc1NC(=O)c1ccc(NS(=O)(=O)c2ccccc2)cc1
[2]
  Ratio IC50: > 1080
Cholinesterase [3]
  IC50: 0.046 µM and 0.04 µM
[4]
  inhibition: 0.52%
Acetylcholinesterase [5]
  IC50: > 50 µM

## c1ccc(-c2nn(-c3ccccc3)cc2-c2nc(-c3ccccc3)c(-c3ccccc3)n2-c2ccccc2)cc1
Acetylcholinesterase [6]
  IC50: 41.2 µM
Cholinesterase [7]
  IC50: 0.35 µM

## Cc1ccc(-c2nc3cc(C(=O)NNc4ccc(Br)cc4)ccc3[nH]2)cc1
Acetylcholinesterase [8]
  IC50: > 100 µM
[9]
  IC50: 1.46 µM

## Nc1c2c(nc3ccccc13)CCC2
Acetylcholinesterase [10]
  IC50: 4.4 µM
Cholinesterase [3]
  IC50: 0.27 µM

## NNc1nc(NN)nc(NCCNC(=O)c2cc3c([nH]c4ccccc43)c(-c3ccccc3)n2)n1
Cholinesterase [3]
  IC50: 1 µM
[11]
  inhibition: 29.5%

## CN(C)C(=O)Oc1ccc(C(=O)C2CCC(Cc3ccccc3)CC2)c(OC(=O)N(C)C)c1 (centres undefined)
Cholinesterase [3]
  IC50: 0.53 µM
Acetylcholinesterase [12]
  IC50: 7.8 µM

## CCCCCCNC(=O)Oc1ccc2c(c1)CN1CCc3ccc(/N=N\c4ccccc4)cc3C1N2C (centres undefined)
Acetylcholinesterase [1]
  inhibition: 54.9%
Cholinesterase [13]
  IC50: 0.044 µM

## COc1ccc2c(c1)CC/C(=C\c1ccc[n+](Cc3ccc(Br)cc3)c1)C2=O
Acetylcholinesterase [14]
  IC50: 17.6 µM
Cholinesterase [15]
  IC50: 0.883 µM

## CON(C)C(=O)Oc1cc(C)ccc1C(=O)NCCc1c[nH]c2ccc(Cl)cc12
Cholinesterase [3]
  IC50: 0.057 µM
Acetylcholinesterase [12]
  IC50: > 100 µM
[16]
  Ratio IC50: > 1750

## CCN(CC)C(=O)c1ccc2c(c1)nc(Cc1ccc(OC(=O)N3CCC3)cc1)n2CCC(C)C
[17]
  Ratio IC50: 10
Cholinesterase [13]
  IC50: 0.006 µM

## COc1cccc(C(=O)OCc2ccccc2)c1OC(=O)N(C)OC
Cholinesterase [3]
  IC50: 0.99 µM
Acetylcholinesterase [12]
  IC50: > 100 µM
Cholinesterase [18]
  inhibition: 50%

## CCNC(=S)N/N=C/c1c(OC)cc(OC)c2c(-c3ccccc3)c[nH]c12
Cholinesterase [13]
  IC50: 1.95 µM
Acetylcholinesterase [5]
  IC50: 59.4 µM

## CCN(CC)Cc1ccccc1CNC(=O)c1cccc(NC(=O)c2cccc(C(=O)NO)c2)c1
[19]
  IC50: 0.071 µM
Cholinesterase [20]
  IC50: 0.0018 µM

## COc1cc(CNCCCNc2c3c(nc4ccccc24)CCCCC3)ccc1O
Acetylcholinesterase [21]
  IC50: 3.01 µM
Cholinesterase [22]
  IC50: 0.357 µM

## Fc1ccc2c(c1)c1c(n2CCN2CCCCC2)CCCC1
Cholinesterase [3]
  IC50: 0.11 µM
Acetylcholinesterase [12]
  IC50: > 100 µM

## CC(C)N(Cc1ccccc1)C(=O)/C=C/C=C/c1ccc2c(c1)OCO2
Acetylcholinesterase [14]
  IC50: > 1000 µM
Cholinesterase [15]
  IC50: 4.6 µM

## Cc1ccc(/C=N/NC(=O)Cn2c(=O)sc3ccccc32)s1
Acetylcholinesterase [23]
  IC50: > 40 µM
Cholinesterase [22]
  IC50: 1.38 µM
